From ChEMBL document CHEMBL1133184, “SAR of 9-amino-1,2,3,4-tetrahydroacridine-based acetylcholinesterase inhibitors: synthesis, enzyme inhibitory activity, QSAR, and structure-based CoMFA of tacrine analogues” (J Med Chem, 2000)

How the values were obtained:
Acetylcholinesterase [1] = target: T1, Acetylcholinesterase (Homo sapiens, UniProt P22303)
Description: Experimental pIC50 values for the inhibition of acetylcholinesterase

Acetylcholinesterase [2] = target: T1, Acetylcholinesterase; remark: listed apart in the source
Description: Inhibitory activity against human erythrocyte acetylcholinesterase

T1 sequence (P22303 whole entry): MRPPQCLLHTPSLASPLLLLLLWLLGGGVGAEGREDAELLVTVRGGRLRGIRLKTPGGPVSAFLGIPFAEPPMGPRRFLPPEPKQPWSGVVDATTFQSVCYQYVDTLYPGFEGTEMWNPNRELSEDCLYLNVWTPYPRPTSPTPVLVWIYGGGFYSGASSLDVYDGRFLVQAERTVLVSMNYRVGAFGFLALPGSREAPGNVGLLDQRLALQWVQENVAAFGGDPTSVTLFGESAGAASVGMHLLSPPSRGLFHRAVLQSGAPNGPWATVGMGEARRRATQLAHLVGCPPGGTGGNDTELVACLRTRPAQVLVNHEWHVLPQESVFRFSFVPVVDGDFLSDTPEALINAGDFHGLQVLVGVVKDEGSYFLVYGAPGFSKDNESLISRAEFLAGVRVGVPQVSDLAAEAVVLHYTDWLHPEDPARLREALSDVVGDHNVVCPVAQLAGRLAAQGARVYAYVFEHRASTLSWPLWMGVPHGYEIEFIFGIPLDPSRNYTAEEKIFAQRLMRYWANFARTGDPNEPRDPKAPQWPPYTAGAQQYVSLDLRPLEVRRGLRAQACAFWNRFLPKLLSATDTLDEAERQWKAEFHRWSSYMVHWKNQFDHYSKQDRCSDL

Row | SMILES | IC50 (Acetylcholinesterase [1]) [nM] | IC50 (Acetylcholinesterase [2]) [nM]
1 | Nc1c2c(nc3ccccc13)-c1ccc(F)cc1C2 | 437 | 
2 | CCCCCCCNc1c2c(nc3cc([N+](=O)[O-])ccc13)CCCC2 | 295 | 290
3 | COc1ccc2c(N)c3c(nc2c1)CCCC3 | 355 | 350
4 | O=[N+]([O-])c1ccc2nc3c(c(NCc4ccccc4)c2c1)CCCC3 | 1580 | 1600
5 | Clc1ccc2c(NCc3ccccc3)c3c(nc2c1)CCCC3 | 170 | 170
6 | Nc1c2c(nc3cc(Cl)ccc13)-c1ccccc1C2 | 6610 | 
7 | CCCCCCCNc1c2c(nc3cc(Cl)ccc13)CCCC2 | 13.2 | 13
8 | Nc1c2c(nc3ccc([N+](=O)[O-])cc13)CCCC2 | 3020 | 3000
9 | Cc1ccc2c(N)c3c(nc2c1)CCCC3 | 100 | 100
10 | CCCCCCCNc1c2c(nc3cc(C)ccc13)CCCC2 | 129 | 130
11 | Nc1ccc2nc3c(c(N)c2c1)CCCC3 | 3800 | 3800
12 | O=[N+]([O-])c1ccc2c(NCc3ccccc3)c3c(nc2c1)CCCC3 | 4790 | 4800
13 | Nc1c2c(nc3cc(F)ccc13)CCCC2 | 87.1 | 87
14 | CCCCCCCNc1c2c(nc3cc(F)ccc13)CCCC2 | 45.7 | 45
15 | CCCCCCCNc1c2c(nc3ccc(C)cc13)CCCC2 | 389 | 390
16 | Nc1c2c(nc3cc(Br)ccc13)CCCC2 |  | 66
17 | COc1cc2nc3c(c(N)c2cc1OC)CCCC3 | 5130 | 5200
18 | Nc1c2c(nc3cc(Cl)c(Cl)cc13)CCCC2 | 479 | 470
19 | CCCCCCCNc1c2c(nc3cc(OC)ccc13)CCCC2 | 468 | 460
20 | Nc1c2c(nc3ccc(Cl)cc13)CCCC2 | 550 | 550
21 | Cc1ccc2nc3c(c(N)c2c1)CCCC3 | 8130 | 8100
22 | Cc1ccc2c(NCc3ccccc3)c3c(nc2c1)CCCC3 | 741 | 750
23 | COc1cccc2c1Cc1c-2nc2ccccc2c1N | 1660 | 
24 | Cc1ccc2nc3c(c(NCc4ccccc4)c2c1)CCCC3 | 3720 | 3700
